Here are results for six compounds from patent US20220088007A1 (priority 2010, published 2022).

For orientation: AUC(0-inf) means the area under the concentration-time curve extrapolated to infinity. Low readings indicate less exposure, high ones more exposure.

Where two headings read alike, the source gives them in different places.

Series [1] in a line: Example 1 (NB-233): single-dose crossover food-effect study of NB 8/90 trilayer tablets, plasma pharmacokinetics. To be noted: for increase in Cmax: high-fat conditions compared to fasted conditions; for Cmax between high-fat and fasted conditions (in words): 90% CIs within 80% to 125% range.
Series [2] can be described thus: clinical. Here is the method: A phase I, open label, steady-state study was performed to assess the plasma pharmacokinetics of NB tablets under fed and fasted conditions. An extension of the study allowed for the evaluation of the effect of food on the pharmacokinetics of NB tablets.
Days 1-31 of the study were devoted to the primary investigation of metoprolol pharmacokinetics in the context of steady-state dosing with NB tablets. Subjects (n=18) received a metoprolol 50 mg IR tablet on Days 1 and 31. NB was dose escalated every week from a single NB 8/90 tablet per day on Day 3 to a maximum dose of NB 32/360 (two NB 8/90 tablets BID) starting on Day 24. In the clinic setting (Days 1-3 and 27-31), standardized meals were provided before dosing and pharmacokinetic sampling. These meals were moderate in fat and caloric content. Subjects were instructed to take study medication with food during the outpatient (Days 4-26) phase of the study.
Subjects enrolling in the optional extension continued BID dosing administration (with moderate meals) through Day 32. […] The evening dose on Day 33, study medication was given with food (“moderate” meal). For Day 34, subjects received their morning dose under the opposite condition from what they received on the morning of Day 33. […] For purposes of studying the effects of food, the comparisons were between Day 30 pharmacokinetics (“moderate” meal) and the fasted and high-fat meal conditions administered on Day 33 and Day 34.

For series [3] the following is noted: in vivo.
For series [4] the following is noted: human, in vivo.
The nature of series [5]: clinical. To be noted: both, human.
The nature of series [6]: clinical. The note with it: human.
Series [7] in a line: Example 3 (NB-239 vs NB-237): single dose NB 8/90 tablets, moderate-fat, moderate-calorie meal vs fasted, cross-study comparison. To be noted: for Cmax: single dose two NB 8/90 tablets.
The mark [8] stands for this setting: fed moderate-fat meal, mean ± SD.
Where [9] appears, read: fed moderate-calorie, moderate-fat meal, mean ± SD.
Where [10] appears, read: fed (high-fat meal), arithmetic mean ± SD.

As for `C[C@H](NC(C)(C)C)[C@@H](O)c1cccc(Cl)c1` [threohydrobupropion], the “increase in Cmax” value in series [1] stood at 26%.
`CC(NC(C)(C)C)C(=O)c1cccc(Cl)c1` (stereo not shown) [Bupropion, bupropion]: the Cmin in “clinical [2]” (both, human, in vivo) was found to be 41.6 ± 10.4 ng/mL. Moreover, the AUC0-t in “clinical [2]” (both, human, in vivo, po) is 965 ± 249 ng·h/mL; in series [1] (fasted, arithmetic mean ± SD) it was 1550.91 ± 549.08 ng·h/mL; in series [7] (fasted, mean ± SD), 1496.01 ± 323.04 ng·h/mL. The Tmax amounted to 1.99 h in “clinical [2]” (both, human, in vivo, po, Tmax) and 2.07 h in the series “clinical [6]” (in vivo). Further, the Cmax in the series “clinical [2]” (steady state, morning dose two NB 8/90 tablets fasted, Day 33 or 34, mean ± SD) stood at 131 ± 38.2 ng/mL; in “clinical [2]” (steady state, morning dose two NB 8/90 tablets fed high-fat meal, Day 33 or 34, mean ± SD) it was 167 ± 43.4 ng/mL; in “clinical [2]” (steady state, two NB 8/90 tablets BID, fed moderate meal, Day 30, mean ± SD) it was 156 ± 52.5 ng/mL; in “clinical [5]” (in vivo) it was 161 ± 52.1 ng/mL; in series [7] (fasted, mean ± SD), 156 ± 36.9 ng/mL; in series [7] (setting [9]) it was 154 ± 55.4 ng/mL. For the same compound, the “AUC0-t Fed to Fasted % MR” value in series [3] (both, human) came to 139.50%. Further, the “t1/2 apparent terminal elimination half-life” value in series [3] (both, human) was 20.44 h. Moreover, the “apparent terminal elimination t1/2, fed vs fasted conditions (in words)” value in series [3] is listed as “similar”. In series [3], the “median Tmax, fed vs fasted conditions (in words)” value is reported as “one hour shorter”. Further, in series [4], the “AUC0-t % MR, fed (moderate-fat) to fasted” value is recorded as 91.55%. In the series “clinical [5]” (in vivo), this compound came in with an area under the curve AUC(0-inf) of 1620 ± 574 ng·h/mL. Moreover, the “AUC0-∞” value in series [7] (fasted, mean ± SD) came to 1574.93 ± 346.49 ng·h/mL; in series [7] (setting [8]), 1384.85 ± 330.19 ng·h/mL. This compound also yielded a t1/2 in series [7] (fasted, mean ± SD) of 19.83 ± 3.24 h.
For the compound `CC(NC(C)(C)C)C(O)c1cccc(Cl)c1` (stereo not shown) [erythrohydrobupropion], the “Cmax between high-fat and fasted conditions (in words)” value in series [1] is given as “comparable”.
Regarding `Oc1ccc2c3c1O[C@H]1[C@H](O)CC[C@@]4(O)[C@@H](C2)N(CC2CC2)CC[C@]314` [6β-naltrexol], the “effect of food (moderate-fat or high-fat meal) on exposure relative to the fasted state (in words)” value in “clinical [2]” (steady state, two NB 8/90 tablets) is recorded as “neither meal type appeared to affect”. Further, the “increase in Cmax” value in series [1] amounted to 52%.
With `C[C@H]1NC(C)(C)CO[C@]1(O)c1cccc(Cl)c1` [hydroxybupropion], the “Cmax between high-fat and fasted conditions (in words)” value in series [1] is recorded as “comparable”.
As to `O=C1CC[C@@]2(O)[C@H]3Cc4ccc(O)c5c4[C@@]2(CCN3CC2CC2)[C@H]1O5` [Naltrexone, naltrexone], the AUC0-t was found to be 7.07 ± 2.88 ng·h/mL in the series “clinical [2]” (both, human, plasma, po, fasted, Day 33 or 34, mean ± SD); 11.8 ± 4.68 ng·h/mL in the series “clinical [2]” (both, human, plasma, po, fed high-fat meal, Day 33 or 34, mean ± SD); 11.7 ± 4.45 ng·h/mL in “clinical [2]” (both, human, plasma, po, fed moderate meal, Day 30, mean ± SD); 8.3 ± 6.41 ng·h/mL in the series “clinical [6]” (plasma, oral); 7.98 ± 4.04 ng·h/mL in series [1] (fasted, arithmetic mean ± SD); 16.42 ± 8.70 ng·h/mL in series [1] (setting [10]). The same compound returned an AUC0-t in series [7] (setting [8]) of 13.41 ± 6.93 ng·h/mL. Further, the Cmax is 1.47 ± 0.71 ng/mL in “clinical [2]” (both, human, plasma, po, Cmax, steady state, morning dose two NB 8/90 tablets fasted, Day 33 or 34, mean ± SD); 2.84 ± 1.53 ng/mL in the series “clinical [2]” (both, human, plasma, po, Cmax, steady state, morning dose two NB 8/90 tablets fed high-fat meal, Day 33 or 34, mean ± SD); 2.6 ± 1.02 ng/mL in “clinical [2]” (both, human, plasma, po, Cmax, steady state, two NB 8/90 tablets BID, fed moderate meal, Day 30, mean ± SD); 1.34 ± 0.763 ng/mL in the series “clinical [6]” (plasma, oral); 4.00 ± 2.52 ng/mL in series [1] (plasma, single dose two NB 8/90 tablets, fed (high-fat meal), arithmetic mean ± SD); 2.65 ± 1.18 ng/mL in series [7] (setting [9]). Further, the Tmax in “clinical [2]” (both, human, plasma, po, Tmax, fasted, Day 33 or 34, median (minimum, maximum)) is 0.75 h; in “clinical [2]” (both, human, plasma, po, Tmax, fed moderate meal, Day 30, median (minimum, maximum)) it was 2 h; in “clinical [2]” (fed high-fat meal, Day 33 or 34, median (minimum, maximum)), 3.00 (1.25, 6.00) hr; in the series “clinical [5]” (plasma, oral), 2 h; in the series “clinical [6]” (plasma, oral) it was 1.27 h; in series [1] (fed (high-fat meal), median (minimum, maximum)) it was 2.00 (0.75, 6.00) hr. For the same compound, in series [7] (fed moderate-fat meal, median (minimum, maximum)), the Tmax is reported as 2.00 (0.75, 6.00) hr. Moreover, the Cmin in “clinical [2]” (fasted, Day 33 or 34, mean ± SD) is given as 0.172 ± 0.0758 ng/mL; in the series “clinical [2]” (fed high-fat meal, Day 33 or 34, mean ± SD), 0.159 ± 0.0895 ng/mL; in “clinical [2]” (fed moderate meal, Day 30, mean ± SD), 0.195 ± 0.105 ng/mL. Further, the “lower Cmin versus the fasted condition” value in “clinical [2]” (high-fat, high-calorie meal) came out at 12%. In “clinical [2]” (moderate-fat, moderate-calorie meal), the “higher Cmin versus the fasted condition” value was found to be 10%. Further, the “Cmin % MR, high-fat fed to fasted” value in the series “clinical [2]” (steady state) is 88.39%. For the same compound, the “Cmin % MR, high-fat to moderate-fat” value in “clinical [2]” (steady state) is 80.15%. Also, the “Cmin % MR, moderate-fat fed to fasted” value in “clinical [2]” (steady state) was determined as 110.04%. Also, in “clinical [2]” (steady state, morning dose), the “effect of changing meal from moderate-fat, moderate-calorie to high-fat, high-calorie (in words)” value is on record as “no effect”. In addition, the AUC(0-inf) in the series “clinical [5]” (plasma, oral) was determined as 8.39 ± 4.26 ng·h/mL; in the series “clinical [6]” (plasma, oral), 8.55 ± 6.46 ng·h/mL. In addition, the entries for the “AUC0-∞” value in series [1] (setting [10]) and in series [7] (setting [8]) were 16.65 ± 8.70 ng·h/mL and 13.63 ± 7.15 ng·h/mL, respectively. Also, in series [1] (fed vs fasted), the “median Tmax, fed vs fasted conditions (in words)” value was “similar”. Moreover, the “AUC0-t Fed to Fasted % MR” value in series [1] (high-fat fed vs fasted) was determined as 211.50%.
